Test results as given in the supplement of paper PMC10307832.

Tests used:
Test in all cases: relative viability (nuclei count vs DMSO), 5 days (fraction); higher = more cells survive
AZ505 + Olaparib = compound: C1CCC(CC1)N(CCNCCC2=C3C(=C(C=C2)O)NC(=O)CO3)C(=O)CCNCCC4=CC(=C(C=C4)Cl)Cl [AZ505] + O=C(c1cc(Cc2n[nH]c(=O)c3ccccc23)ccc1F)N1CCN(C(=O)C2CC2)CC1 [Olaparib] (partner 8 µM)
In short: (§1)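 Relative viability is defined as nuclei in treated wells over nuclei in vehicle wells. Duplicate plates were run and medians reported. Lung cancer cell lines in 1536-well plates were dosed by pin tool one day after seeding, with one drug or with a fixed anchor-drug dose plus five library-drug doses (not always all listed) in √10 steps, and nuclei were counted after 5 days.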

Dactolisib + Crizotinib = compound: Cn1c(=O)n(-c2ccc(C(C)(C)C#N)cc2)c2c3cc(-c4cnc5ccccc5c4)ccc3ncc21 [Dactolisib] + C[C@@H](Oc1cc(-c2cnn(C3CCNCC3)c2)cnc1N)c1c(Cl)ccc(F)c1Cl [Crizotinib] (partner 1 µM)
In short: as §1

AZ505 + AZD7762 = compound: C1CCC(CC1)N(CCNCCC2=C3C(=C(C=C2)O)NC(=O)CO3)C(=O)CCNCCC4=CC(=C(C=C4)Cl)Cl [AZ505] + NC(=O)Nc1cc(-c2cccc(F)c2)sc1C(=O)N[C@H]1CCCNC1 [AZD7762] (partner 0.2 µM)
In short: as §1

Dactolisib + Foretinib = compound: Cn1c(=O)n(-c2ccc(C(C)(C)C#N)cc2)c2c3cc(-c4cnc5ccccc5c4)ccc3ncc21 [Dactolisib] + COc1cc2c(Oc3ccc(NC(=O)C4(C(=O)Nc5ccc(F)cc5)CC4)cc3F)ccnc2cc1OCCCN1CCOCC1 [Foretinib] (partner 0.25 µM)
In short: as §1

Row | Cell Line | relative viability (AZ505 + Olaparib; first compound 0.08 µM) | relative viability (AZ505 + Olaparib; first compound 0.253 µM) | relative viability (AZ505 + Olaparib; first compound 0.8 µM) | relative viability (AZ505 + Olaparib; first compound 2.53 µM) | relative viability (AZ505 + Olaparib; first compound 8 µM) | relative viability (Dactolisib + Crizotinib; first compound 0.002 µM) | relative viability (Dactolisib + Crizotinib; first compound 0.006325 µM) | relative viability (Dactolisib + Crizotinib; first compound 0.02 µM) | relative viability (Dactolisib + Crizotinib; first compound 0.06325 µM) | relative viability (Dactolisib + Crizotinib; first compound 0.2 µM) | relative viability (AZ505 + AZD7762; first compound 0.08 µM) | relative viability (AZ505 + AZD7762; first compound 0.253 µM) | relative viability (AZ505 + AZD7762; first compound 0.8 µM) | relative viability (AZ505 + AZD7762; first compound 2.53 µM) | relative viability (AZ505 + AZD7762; first compound 8 µM) | relative viability (Dactolisib + Foretinib; first compound 0.002 µM) | relative viability (Dactolisib + Foretinib; first compound 0.006325 µM) | relative viability (Dactolisib + Foretinib; first compound 0.02 µM) | relative viability (Dactolisib + Foretinib; first compound 0.06325 µM) | relative viability (Dactolisib + Foretinib; first compound 0.2 µM)
1 | ChaGo-K-1 | 0.404 | 0.439 | 0.431 | 0.402 | 0.469 | 1.06 | 1.03 | 1.1 | 1.12 | 1.13 | 0.73 | 0.836 | 0.766 | 0.888 | 0.886 | 0.908 | 0.919 | 0.886 | 0.835 | 0.926
2 | EBC-1 | 0.644 | 0.693 | 0.673 | 0.69 | 0.642 | 0.226 | 0.181 | 0.208 | 0.198 | 0.2 | – | – | – | – | – | 0.102 | 0.0977 | 0.103 | 0.103 | 0.0903
3 | EKVX | – | 0.895 | 0.764 | 0.874 | 0.916 | 0.971 | 0.879 | 0.923 | 0.686 | 0.341 | – | 0.629 | 0.849 | 0.678 | 0.746 | 0.598 | 0.743 | 0.652 | 0.715 | 0.568
4 | EMC-BAC-2 | 0.453 | 0.541 | 0.487 | 0.524 | 0.437 | 0.834 | 0.718 | 0.708 | 0.565 | 0.34 | 0.957 | 1.17 | 1.11 | 1.14 | 1.14 | 1.04 | 0.976 | 0.984 | 0.501 | 0.484
5 | EPLC-272H | 0.638 | 0.664 | 0.654 | 0.782 | 0.628 | 0.949 | 0.564 | 0.647 | 0.494 | 0.483 | 0.451 | 0.253 | 0.433 | 0.424 | 0.343 | 0.623 | 0.491 | 0.467 | 0.308 | 0.236
6 | H3255 | 0.55 | 0.564 | 0.569 | 0.601 | 0.597 | 0.974 | 0.813 | 0.912 | 0.556 | 0.391 | 0.737 | 0.883 | 0.906 | 0.942 | 0.957 | 0.989 | 0.851 | 0.793 | 0.724 | 0.772
7 | HARA | 0.451 | – | 0.734 | 0.631 | 0.761 | 1.12 | 1.02 | 1.04 | 1.01 | 0.421 | 0.354 | – | 0.33 | 0.693 | 0.351 | 1.12 | 0.878 | 0.771 | 0.763 | 0.225
8 | HCC-15 | 0.639 | 0.723 | 0.75 | 0.73 | 0.736 | 0.826 | 0.767 | 0.788 | 0.556 | 0.366 | 0.711 | 1.24 | 1.24 | 1.13 | 1.42 | 1.02 | 1.01 | 0.936 | 0.548 | 0.446
